From ChEMBL document CHEMBL1201862, “PubChem BioAssay data set” (2004)
The source made the active and inactive calls. Rule as the data show it, for most assays here: actives have a measured IC50 and inactives only a lower limit.

Tests used:
[1] = target: T1, Tyrosine-protein phosphatase non-receptor type 7 (Homo sapiens, UniProt P35236); assay type: functional
T1 sequence (P35236 whole entry): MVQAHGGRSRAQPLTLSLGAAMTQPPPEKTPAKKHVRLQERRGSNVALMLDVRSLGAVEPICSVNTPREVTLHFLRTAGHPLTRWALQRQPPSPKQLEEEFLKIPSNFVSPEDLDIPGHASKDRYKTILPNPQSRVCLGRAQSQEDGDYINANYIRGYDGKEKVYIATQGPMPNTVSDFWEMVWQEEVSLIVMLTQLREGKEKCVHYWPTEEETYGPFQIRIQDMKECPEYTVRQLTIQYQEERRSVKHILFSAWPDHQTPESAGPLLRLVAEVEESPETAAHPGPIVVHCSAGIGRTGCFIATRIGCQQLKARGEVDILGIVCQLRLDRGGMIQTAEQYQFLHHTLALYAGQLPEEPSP

[2] = target: T2, Tyrosine-protein phosphatase non-receptor type 22 (Homo sapiens, UniProt Q9Y2R2); assay type: functional
T2 sequence (Q9Y2R2 whole entry): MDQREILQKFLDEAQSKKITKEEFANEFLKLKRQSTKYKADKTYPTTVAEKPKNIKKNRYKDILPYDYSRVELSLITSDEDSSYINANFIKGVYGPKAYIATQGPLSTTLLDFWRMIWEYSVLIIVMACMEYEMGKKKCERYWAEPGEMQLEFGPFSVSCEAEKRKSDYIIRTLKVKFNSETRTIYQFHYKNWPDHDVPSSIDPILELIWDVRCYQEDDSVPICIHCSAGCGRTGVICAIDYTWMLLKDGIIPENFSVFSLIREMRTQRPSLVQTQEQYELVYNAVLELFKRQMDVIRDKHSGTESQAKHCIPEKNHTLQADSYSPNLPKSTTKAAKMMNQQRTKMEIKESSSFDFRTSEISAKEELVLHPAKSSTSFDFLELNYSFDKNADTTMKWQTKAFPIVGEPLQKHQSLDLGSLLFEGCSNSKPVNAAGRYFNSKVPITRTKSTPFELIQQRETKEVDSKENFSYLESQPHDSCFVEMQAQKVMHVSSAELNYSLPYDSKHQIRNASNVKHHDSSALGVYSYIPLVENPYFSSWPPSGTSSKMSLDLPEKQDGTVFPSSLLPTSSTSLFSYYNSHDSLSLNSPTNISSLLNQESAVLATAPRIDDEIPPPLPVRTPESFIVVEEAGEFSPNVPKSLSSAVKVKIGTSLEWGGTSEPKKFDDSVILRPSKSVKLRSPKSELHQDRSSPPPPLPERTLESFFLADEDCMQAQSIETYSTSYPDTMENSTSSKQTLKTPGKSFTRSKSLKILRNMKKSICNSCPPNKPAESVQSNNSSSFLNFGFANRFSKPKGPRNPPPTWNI

[3] = target: T2, Tyrosine-protein phosphatase non-receptor type 22; assay type: functional; remark: listed apart in the source
Beta-galactosidase = Beta-galactosidase (Escherichia coli, UniProt Q8VNN2); test: PubChem AID 485352; assay type: functional
Beta-galactosidase, sequence (Q8VNN2 whole entry): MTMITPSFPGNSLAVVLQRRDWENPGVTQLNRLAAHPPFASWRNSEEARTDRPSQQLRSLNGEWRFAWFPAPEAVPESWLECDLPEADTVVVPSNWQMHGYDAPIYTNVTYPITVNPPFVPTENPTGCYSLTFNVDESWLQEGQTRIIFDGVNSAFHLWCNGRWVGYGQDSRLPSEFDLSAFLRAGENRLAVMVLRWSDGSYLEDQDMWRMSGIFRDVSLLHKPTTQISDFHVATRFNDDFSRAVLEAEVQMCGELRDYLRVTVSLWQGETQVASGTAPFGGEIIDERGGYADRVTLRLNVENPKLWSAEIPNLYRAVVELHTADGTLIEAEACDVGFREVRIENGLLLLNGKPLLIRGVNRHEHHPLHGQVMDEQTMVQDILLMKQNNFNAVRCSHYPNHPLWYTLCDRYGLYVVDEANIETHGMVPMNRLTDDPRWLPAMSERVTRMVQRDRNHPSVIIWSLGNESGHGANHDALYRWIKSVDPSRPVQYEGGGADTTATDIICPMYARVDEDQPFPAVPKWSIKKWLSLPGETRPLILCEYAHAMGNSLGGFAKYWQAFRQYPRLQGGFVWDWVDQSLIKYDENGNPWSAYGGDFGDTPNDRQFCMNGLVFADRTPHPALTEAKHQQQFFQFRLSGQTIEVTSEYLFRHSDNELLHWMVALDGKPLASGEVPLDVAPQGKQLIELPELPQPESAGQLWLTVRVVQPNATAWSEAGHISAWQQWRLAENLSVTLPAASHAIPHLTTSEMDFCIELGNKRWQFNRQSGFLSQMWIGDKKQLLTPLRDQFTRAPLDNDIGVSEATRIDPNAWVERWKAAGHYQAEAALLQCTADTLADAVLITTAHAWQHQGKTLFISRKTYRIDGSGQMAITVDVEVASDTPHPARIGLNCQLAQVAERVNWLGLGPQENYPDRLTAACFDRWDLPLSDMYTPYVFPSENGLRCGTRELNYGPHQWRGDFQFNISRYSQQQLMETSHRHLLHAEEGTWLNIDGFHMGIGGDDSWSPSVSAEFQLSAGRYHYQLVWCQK

[4] = target: T3, Type-1 angiotensin II receptor (Homo sapiens, UniProt P30556); test: antagonism of angiotensin II type 1 receptor – cell-based, uHTS hits, selectivity assay for APJ receptor antagonist project, dose response (AID 463214); assay type: functional;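 also: antagonist potency against angiotensin II stimulated AT1 response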
T3 sequence (P30556 whole entry): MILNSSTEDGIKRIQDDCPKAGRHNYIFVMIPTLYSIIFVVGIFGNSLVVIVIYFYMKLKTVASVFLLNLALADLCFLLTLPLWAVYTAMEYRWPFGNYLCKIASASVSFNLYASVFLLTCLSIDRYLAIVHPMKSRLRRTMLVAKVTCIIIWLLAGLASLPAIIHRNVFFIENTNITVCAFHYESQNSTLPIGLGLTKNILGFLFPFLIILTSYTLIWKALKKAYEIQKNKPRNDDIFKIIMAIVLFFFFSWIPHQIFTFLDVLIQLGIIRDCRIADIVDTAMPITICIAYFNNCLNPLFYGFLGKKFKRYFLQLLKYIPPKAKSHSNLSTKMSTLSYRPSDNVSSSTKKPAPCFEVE

Cytochrome P450 1A2 = target: T4, Cytochrome P450 1A2 (Homo sapiens, UniProt P05177);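 also: PubChem cytochrome P450 panel assay, CYP1A2 panel member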
T4 sequence (P05177 whole entry): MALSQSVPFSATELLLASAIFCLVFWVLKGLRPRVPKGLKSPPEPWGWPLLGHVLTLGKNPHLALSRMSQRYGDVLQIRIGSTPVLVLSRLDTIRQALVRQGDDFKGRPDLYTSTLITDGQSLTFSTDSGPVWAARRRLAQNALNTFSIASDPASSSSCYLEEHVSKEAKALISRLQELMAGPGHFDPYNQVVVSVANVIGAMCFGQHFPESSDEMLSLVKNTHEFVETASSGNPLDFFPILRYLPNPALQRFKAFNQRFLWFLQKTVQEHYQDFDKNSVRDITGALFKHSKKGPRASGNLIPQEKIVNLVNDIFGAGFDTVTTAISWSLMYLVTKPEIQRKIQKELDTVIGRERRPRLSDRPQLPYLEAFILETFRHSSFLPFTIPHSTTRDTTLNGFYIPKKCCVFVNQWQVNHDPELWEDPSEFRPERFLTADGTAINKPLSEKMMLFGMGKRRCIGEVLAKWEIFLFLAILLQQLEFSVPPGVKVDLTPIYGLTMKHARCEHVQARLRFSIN

Cytochrome P450 2C9 = Cytochrome P450 2C9 (Homo sapiens, UniProt P11712)
Cytochrome P450 2C9, sequence (P11712 whole entry): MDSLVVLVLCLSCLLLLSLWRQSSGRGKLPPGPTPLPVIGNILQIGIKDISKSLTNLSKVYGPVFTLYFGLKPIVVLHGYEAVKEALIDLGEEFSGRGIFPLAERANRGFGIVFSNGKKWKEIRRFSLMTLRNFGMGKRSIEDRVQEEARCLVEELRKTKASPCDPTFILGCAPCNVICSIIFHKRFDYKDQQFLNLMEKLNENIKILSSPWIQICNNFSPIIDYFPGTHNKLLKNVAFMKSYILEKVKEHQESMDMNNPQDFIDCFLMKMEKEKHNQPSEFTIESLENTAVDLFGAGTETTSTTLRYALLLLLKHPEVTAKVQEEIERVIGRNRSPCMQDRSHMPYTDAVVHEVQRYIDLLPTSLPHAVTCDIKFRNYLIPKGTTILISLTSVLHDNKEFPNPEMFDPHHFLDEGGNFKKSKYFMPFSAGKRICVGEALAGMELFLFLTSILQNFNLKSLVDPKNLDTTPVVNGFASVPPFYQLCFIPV

[5] = target: DNA dC->dU-editing enzyme APOBEC-3A (Homo sapiens, UniProt P31941); test: Dose Response confirmation of small molecule APOBEC3A DNA Deaminase Inhibitors via a fluorescence-based single-stranded DNA deaminase assay. [Related pubchem assays (depositor defined):AID493011, AID493024]; assay type: functional
DNA dC->dU-editing enzyme APOBEC-3A, sequence (P31941 whole entry): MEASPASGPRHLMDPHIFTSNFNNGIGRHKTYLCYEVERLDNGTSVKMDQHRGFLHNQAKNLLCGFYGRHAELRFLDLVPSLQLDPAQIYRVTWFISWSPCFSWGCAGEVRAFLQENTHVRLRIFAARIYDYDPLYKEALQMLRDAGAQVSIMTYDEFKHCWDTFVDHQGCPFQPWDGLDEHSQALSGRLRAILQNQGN

[6] = target: DNA dC->dU-editing enzyme APOBEC-3G (Homo sapiens, UniProt Q9HC16); assay type: functional;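 also: Dose-response counterscreen measuring inhibition of APOBEC3G DNA deaminase activity, run while confirming APOBEC3A inhibitors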
DNA dC->dU-editing enzyme APOBEC-3G, sequence (Q9HC16 whole entry, the tested form may be a part): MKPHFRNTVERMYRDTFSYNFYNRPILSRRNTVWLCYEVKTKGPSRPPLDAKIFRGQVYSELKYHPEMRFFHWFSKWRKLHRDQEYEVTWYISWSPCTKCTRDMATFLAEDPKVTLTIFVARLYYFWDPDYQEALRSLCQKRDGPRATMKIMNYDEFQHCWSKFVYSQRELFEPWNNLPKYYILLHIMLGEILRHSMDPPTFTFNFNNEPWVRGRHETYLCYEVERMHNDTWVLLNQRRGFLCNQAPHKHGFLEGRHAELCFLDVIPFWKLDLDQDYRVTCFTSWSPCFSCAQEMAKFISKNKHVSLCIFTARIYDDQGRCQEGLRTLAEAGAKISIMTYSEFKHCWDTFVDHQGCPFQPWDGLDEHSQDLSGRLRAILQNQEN

[7] = target: T5, Carboxy-terminal domain RNA polymerase II polypeptide A small phosphatase 1 (Homo sapiens, UniProt Q9GZU7); test: CTDSP1 inhibitors, concentration-response, biochemical, absorbance readout, ultra-high-throughput screen actives (AID 540297); assay type: functional
T5 sequence (Q9GZU7 whole entry): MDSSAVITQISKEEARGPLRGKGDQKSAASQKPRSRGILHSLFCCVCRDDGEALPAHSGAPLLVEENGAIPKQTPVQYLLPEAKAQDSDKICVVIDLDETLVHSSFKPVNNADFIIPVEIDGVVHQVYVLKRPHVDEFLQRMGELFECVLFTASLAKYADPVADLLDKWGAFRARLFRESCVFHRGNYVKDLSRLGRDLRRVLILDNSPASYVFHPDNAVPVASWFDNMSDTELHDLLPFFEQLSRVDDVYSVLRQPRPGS

[8] = target: Voltage-dependent T-type calcium channel subunit alpha-1H (Homo sapiens, UniProt O95180); assay type: functional;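 also: channel activity triggered by adding a high calcium stimulation buffer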
Voltage-dependent T-type calcium channel subunit alpha-1H, sequence (O95180 whole entry): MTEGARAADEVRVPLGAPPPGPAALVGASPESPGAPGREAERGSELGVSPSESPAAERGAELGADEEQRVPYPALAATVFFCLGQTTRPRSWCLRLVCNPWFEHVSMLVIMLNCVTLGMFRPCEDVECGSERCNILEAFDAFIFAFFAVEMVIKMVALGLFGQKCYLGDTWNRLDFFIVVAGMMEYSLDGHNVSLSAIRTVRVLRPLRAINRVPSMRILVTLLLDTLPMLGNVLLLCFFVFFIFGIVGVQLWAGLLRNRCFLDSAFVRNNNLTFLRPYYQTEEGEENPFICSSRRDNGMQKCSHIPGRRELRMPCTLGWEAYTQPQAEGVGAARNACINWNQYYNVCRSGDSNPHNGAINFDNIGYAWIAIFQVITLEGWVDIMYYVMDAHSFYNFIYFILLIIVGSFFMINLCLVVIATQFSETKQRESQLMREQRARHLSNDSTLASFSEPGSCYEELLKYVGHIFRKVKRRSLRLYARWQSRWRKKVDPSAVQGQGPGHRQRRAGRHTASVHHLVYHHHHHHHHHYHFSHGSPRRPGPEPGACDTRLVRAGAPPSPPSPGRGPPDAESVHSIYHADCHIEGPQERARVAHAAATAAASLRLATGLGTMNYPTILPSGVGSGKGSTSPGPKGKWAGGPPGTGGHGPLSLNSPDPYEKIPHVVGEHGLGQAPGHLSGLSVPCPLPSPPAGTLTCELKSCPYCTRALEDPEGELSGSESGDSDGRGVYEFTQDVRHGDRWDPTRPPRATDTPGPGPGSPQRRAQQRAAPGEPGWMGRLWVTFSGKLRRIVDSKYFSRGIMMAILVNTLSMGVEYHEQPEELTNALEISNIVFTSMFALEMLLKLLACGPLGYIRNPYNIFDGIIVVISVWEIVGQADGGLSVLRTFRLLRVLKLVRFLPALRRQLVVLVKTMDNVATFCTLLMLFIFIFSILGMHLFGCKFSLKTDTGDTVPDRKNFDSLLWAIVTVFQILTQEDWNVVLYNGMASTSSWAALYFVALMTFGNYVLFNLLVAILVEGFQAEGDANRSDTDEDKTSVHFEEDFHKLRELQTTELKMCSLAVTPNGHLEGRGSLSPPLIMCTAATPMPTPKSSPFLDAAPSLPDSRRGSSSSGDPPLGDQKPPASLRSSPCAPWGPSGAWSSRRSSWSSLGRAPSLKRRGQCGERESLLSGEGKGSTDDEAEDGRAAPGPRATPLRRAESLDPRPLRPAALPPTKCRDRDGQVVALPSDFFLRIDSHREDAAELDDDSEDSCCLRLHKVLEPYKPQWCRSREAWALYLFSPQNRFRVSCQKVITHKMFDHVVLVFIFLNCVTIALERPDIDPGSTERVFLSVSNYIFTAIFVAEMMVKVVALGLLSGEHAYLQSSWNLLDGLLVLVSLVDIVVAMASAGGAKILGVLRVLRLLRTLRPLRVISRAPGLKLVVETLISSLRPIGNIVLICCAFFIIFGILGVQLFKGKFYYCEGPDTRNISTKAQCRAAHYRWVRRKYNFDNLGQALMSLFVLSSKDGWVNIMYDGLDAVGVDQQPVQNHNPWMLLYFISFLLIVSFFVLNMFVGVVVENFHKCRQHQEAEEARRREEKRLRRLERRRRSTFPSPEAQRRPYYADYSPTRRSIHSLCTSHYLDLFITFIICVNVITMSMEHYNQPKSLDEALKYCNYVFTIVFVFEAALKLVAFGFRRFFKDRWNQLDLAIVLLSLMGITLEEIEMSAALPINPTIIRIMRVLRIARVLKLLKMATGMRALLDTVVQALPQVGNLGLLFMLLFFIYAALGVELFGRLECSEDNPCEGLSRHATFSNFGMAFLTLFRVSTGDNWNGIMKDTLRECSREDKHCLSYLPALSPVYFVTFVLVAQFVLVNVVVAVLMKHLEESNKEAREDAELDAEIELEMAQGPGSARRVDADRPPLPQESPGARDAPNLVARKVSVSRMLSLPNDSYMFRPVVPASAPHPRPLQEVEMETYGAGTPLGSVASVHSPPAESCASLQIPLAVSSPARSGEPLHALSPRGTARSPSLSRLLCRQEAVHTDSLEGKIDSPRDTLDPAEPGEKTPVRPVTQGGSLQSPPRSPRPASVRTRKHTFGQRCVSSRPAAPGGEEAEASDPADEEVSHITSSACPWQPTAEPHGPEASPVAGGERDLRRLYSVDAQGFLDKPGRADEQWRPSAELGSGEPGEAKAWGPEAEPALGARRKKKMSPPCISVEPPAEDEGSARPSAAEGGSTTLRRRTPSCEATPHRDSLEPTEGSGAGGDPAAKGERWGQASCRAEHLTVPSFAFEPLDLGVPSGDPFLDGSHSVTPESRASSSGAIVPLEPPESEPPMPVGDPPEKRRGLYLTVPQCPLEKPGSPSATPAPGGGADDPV

Tumor necrosis factor = Tumor necrosis factor (Homo sapiens, UniProt P01375); test: analog potency on TNFa NF-kB signaling – cell-based, revised, SAR follow-up (AID 2337); assay type: functional
Tumor necrosis factor, sequence (P01375 whole entry): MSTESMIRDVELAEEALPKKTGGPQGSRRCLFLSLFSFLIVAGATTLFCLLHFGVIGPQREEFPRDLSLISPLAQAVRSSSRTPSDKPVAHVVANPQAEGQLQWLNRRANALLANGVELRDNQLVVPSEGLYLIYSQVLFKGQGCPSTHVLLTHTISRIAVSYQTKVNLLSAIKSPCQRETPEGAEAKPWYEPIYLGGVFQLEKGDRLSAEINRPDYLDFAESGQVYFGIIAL

HEK293 = test: cells; settings: Homo sapiens;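 also: cells exposed to compound for 14 hours overnight before viability readout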

Q: How did the IC50 [1] turn out when `Cc1ccc(NC(=O)COC(=O)c2cc(-c3cccs3)nn2-c2ccccc2)cc1[N+](=O)[O-]` was run?
A: > 79.4 µM (inactive)

Q: And the IC50 [2]?
A: > 79.4 µM (inactive)

Q: And the IC50 [3]?
A: > 79.4 µM (inactive)

Q: `Cc1ccc(C)c(CN2C(=O)COc3ccc(C(=O)c4ccccc4C(=O)O)cc32)c1` was tested. Which IC50 [1] did it give?
A: > 79.4 µM (inactive)

Q: What about the IC50 [2] of the same compound?
A: > 79.4 µM (inactive)

Q: What about the IC50 [3] of the same compound?
A: > 79.4 µM (inactive)

Q: What does the source list for `CN(C)S(=O)(=O)N1CCN(S(=O)(=O)c2ccc3ccccc3c2)CC1`?
A: IC50 [1]: > 79.4 µM (inactive); IC50 [2]: > 79.4 µM (inactive); IC50 [3]: > 79.4 µM (inactive)

Q: Which EC50 (Beta-galactosidase) does the source give for `Cc1ccc2nc(C)cc(C(=O)OCC(=O)c3ccc(Cl)c([N+](=O)[O-])c3)c2c1` here?
A: > 40 µM (inactive)

Q: And the IC50 [4]?
A: 13.2 µM (active)

Q: `Cc1cc(C)cc(-n2nnnc2SCC(=O)Nc2nc(-c3ccc(Cl)cc3)cs2)c1` was tested. Which AC50 (Cytochrome P450 1A2) did it give?
A: 7.08 µM (inconclusive)

Q: What about the AC50 (Cytochrome P450 2C9) of the same compound?
A: inconclusive

Q: Which EC50 (Beta-galactosidase) does the source give for `Cc1cccc(NC2=c3cccc(Cl)c3=NC2=O)c1` here?
A: > 40 µM (inactive)

Q: What about the IC50 [4] of the same compound?
A: > 40 µM (not active)

Q: Which IC50 [5] does the source give for `C[N+]1(C2CCC3CCCC2C3O)CCCCC1` (centres undefined) here?
A: 2.42 µM (active)

Q: And the IC50 [6]?
A: 2.69 µM (active)

Q: What about the IC50 [7] of the same compound?
A: 6.61 µM (active)

Q: For `CCN(CC)c1ccc(/C=C/c2nc3ccccc3s2)cc1`, which EC50 [8] is on record?
A: 6.85 µM (active)

Q: What about the AC50 (Cytochrome P450 2C9) of the same compound?
A: inconclusive

Q: Which results are given for `CCn1cc(Br)c(C(=O)NC(=S)Nc2ccc(C(=O)OC)cc2)n1`?
A: IC50 [1]: > 79.4 µM (inactive); IC50 [2]: > 79.4 µM (inactive); IC50 [3]: > 79.4 µM (inactive)

Q: What does the source list for `Nc1c(N2CCCC2)c2ccccc2oc1=O`?
A: EC50 (Beta-galactosidase): > 40 µM (inactive); IC50 [4]: 13.7 µM (active)

Q: Which IC50 (Tumor necrosis factor) does the source give for `CC(=O)N1c2ccc(S(=O)(=O)N3CCN(c4ccc([N+](=O)[O-])cc4)CC3)cc2CC1C` (centres undefined) here?
A: 3.27 µM (active)

Q: And the IC50 (HEK293)?
A: 14.3 µM (active)

Q: How did the AC50 (Cytochrome P450 1A2) turn out when `O=C(CO)N/N=C/c1ccccc1F` was run?
A: 25.1 µM (inconclusive)

Q: What about the AC50 (Cytochrome P450 2C9) of the same compound?
A: inconclusive
